Molecules are shown by their SMILES. Values joined by “and” are separate entries in the source; they are usually repeats but may differ in a detail not shown here. Identical values can stand only once.

In one data set the test system is rat L6 myoblasts. The data set can be described thus: Cellular oxygen consumption rate. Type of data set: cell-based.
Data set [1] can be described thus: Mouse pharmacokinetics and oral bioavailability. Particulars: C57BL/6J, plasma, 10 mg/kg. It counts as in vivo, C57BL/6J mice.
The test system of data set [2] is mice. Kind of data set: Whole-body OCR by indirect calorimetry. It counts as in vivo, mouse. Particulars: 40 mg/kg oral gavage.
Another data set concerns L6 cells. Kind of data set: Mitochondrial stress test. To be noted: drug 50 μmol/L, oligomycin 1 μmol/L.
Data set [3] has as its system β-hydroxy-acyl-CoA dehydrogenase (HAD). The data set can be described thus: Enzyme activity of HAD in WD-fed mice. Type of data set: in vivo, mouse. Particulars: mice fed SHD865 in the WD.
For data set [4], the system named is ACC, pSer79-ACC, FAS, AMPK (pThr172). Type of data set: in vivo, mouse. To be noted: mice fed SHD865 in the WD.
Data set [5] can be described thus: Intrinsic clearance in human liver microsomes. It counts as in vitro ADME. On the technique in general: Liver microsomes are vesicles of endoplasmic reticulum, rich in cytochrome P450 enzymes.
The nature of data set [6]: Tissue concentrations at study termination. To be noted: for concentration at 6 weeks: C57BL/6J, mouse, oral, 38 mg/kg per day (0.04% w/w in diet). Type of data set: in vivo, C57BL/6J mice.
Data set [7] in a line: Rat pharmacokinetics and oral bioavailability. Type of data set: in vivo, Sprague-Dawley rats. Particulars: Sprague-Dawley, serum.
Another data set deals with L6 myoblasts. The data set can be described thus: Whole-cell current clamp recording of plasma membrane potential. Type of data set: cell-based, rat. To be noted: n = 8.
In the next data set the test system is C57BL/6J mice fed the WD. Kind of data set: Western diet-induced adiposity reversal study. It counts as in vivo.
Data set [8] has as its system mice. Kind of data set: Dose escalation tolerability study by oral gavage. Type of data set: in vivo, mouse.
Data set [9] deals with medium-chain acyl-CoA dehydrogenase (MCAD). The data set can be described thus: Enzyme activity of MCAD in WD-fed mice. To be noted: mice fed SHD865 in the WD. Type of data set: in vivo, mouse.
The test system of another data set is C57BL/6J mouse tissue. Kind of data set: High-resolution respirometry. Type of data set: in vivo, C57BL/6J mice. Particulars: 2 h after oral gavage of 30 mg/kg.
Where [10] appears, read: second cohort, versus WD-fed controls, 4–5 h fasting.

Turning to `COc1nc2nc(C(F)(F)F)[nH]c2nc1Nc1ccc(OC(F)(F)F)cc1F` [SHD865, N-[2-fluoro-4-[trifluoromethoxy]phenyl]-5-methoxy-2-[trifluoromethyl]-1H-imidazo[4,5-b]pyrazine-6-amine], the “uncoupled respiration across concentration range” value in the data set on rat L6 myoblasts was “maintained uncoupled respiration at a stable rate across a large concentration range”. Further, in the data set on rat L6 myoblasts (Fig. 1B), the “bioactive concentration range in vitro” value was > 10 µmol/L. For the same molecule, the “increase of cellular OCR, as % of the maximal OCR induced by BAM15 and FCCP” value in the data set on rat L6 myoblasts (dose response 0.4 to 50 μmol/L) was ~90%. Also, in [1], the concentration peaked (Cmax) at 9.1 µM and the half-life (as a rule, how long it takes for the measured level to halve) is 1.7 h. Besides, in the data set with mice [2], the “time for respiration to return to normal” value is recorded as 4 h. The “increase in whole-body OCR compared with vehicle” value in the data set on mice [2] (first hour after treatment) is given as “up to 26%”. In the data set with L6 cells, the “mitochondrial respiration in the presence of oligomycin” value was “increase mitochondrial respiration in the presence of the ATP synthase inhibitor oligomycin” and the “spare respiratory capacity, % of BAM15-treated cells” value is given as ~90%. Further, the “decrease of HAD activity versus WD-fed control” value in data set [3] was determined as 12%. Besides, in [4], the “ACC expression versus WD-fed control mice” value was “lower”, the “FAS expression versus WD-fed control mice” value is “lower”, the “Ser79 phosphorylation of ACC” value was “trend for increased Ser79 phosphorylation of ACC” and the “phosphorylation of AMPK-Thr172” value is “increased phosphorylation of AMPK-Thr172”. In addition, in data set [5], the microsomal CLint (in general, the rate of metabolic loss divided by the concentration) was < 116 µL/min/mg. The concentration at 6 weeks in [6] (brown fat) was found to be 18000 ng/g. The concentration at 6 weeks in data set [6] (gonadal fat) was 27000 ng/g. Also, the concentration at 6 weeks in [6] (liver) is 14500 ng/g and ~34 µM. Moreover, the steady-state tissue distribution result in [6] (study termination, 0.04% w/w in WD) is “primarily localized to adipose and liver tissue depots, with lesser exposure in quadriceps muscle, heart, and brain”. In addition, the half-life in data set [7] is 1.7 h. Moreover, the plasma membrane depolarization in the data set on L6 myoblasts (25 μmol/L) is reported as 1.4 ± 0.4 mV. In the data set with C57BL/6J mice fed the WD (0.04% w/w in WD), the “fecal triglyceride levels compared with WD-fed mice” value was “did not alter fecal triglyceride levels”, the “postprandial plasma cholesterol compared with pretreatment” value is on record as “significantly lowered”, the “postprandial plasma triglyceride compared with pretreatment” value is reported as “significantly lowered” and the “random-fed blood glucose compared with WD-fed controls” value was “decrease”. In the data set on C57BL/6J mice fed the WD (0.04% w/w in WD), the “random-fed insulin levels compared with WD-fed controls” value was “decrease” and the “skeletal muscle triglyceride content” value is listed as “completely normalized”. In addition, the “body weight and body fat mass composition” value in the data set on C57BL/6J mice fed the WD (0.04% w/w in WD (∼38 mg/kg per day), first 2 weeks of treatment) is “recovered normal body weight and body fat mass composition similar to the lean chow-fed control mice”. In addition, in the data set on C57BL/6J mice fed the WD (0.04% w/w in WD, 6 weeks), the “WD-induced fat gain (EchoMRI and terminal gonadal fat pad mass)” value is reported as “completely reversed the WD-induced fat gain”; the food intake result was “without a decrease in food intake”; the “lipid droplet accumulation in liver tissue (hematoxylin and eosin staining)” value is reported as “decreased lipid droplet accumulation”; the liver cholesterol concentrations entry is “lower than WD-fed control mice and similar to chow-fed mice”. In the data set on C57BL/6J mice fed the WD (0.04% w/w in WD, 6 weeks), the liver triglyceride levels result is “between those of chow-fed and WD-fed mice without being statistically different from either group”. For the same molecule, the “blood ALT levels” value in the data set with C57BL/6J mice fed the WD (0.04% w/w in WD, 6 weeks, both cohorts) was “did not raise ALT levels”. The “glucose tolerance (GTT at week 9)” value in the data set with C57BL/6J mice fed the WD (0.04% w/w in WD, after 5 weeks of treatment) was “completely reversed glucose intolerance”. For the same molecule, the “insulin levels during GTT, lower than WD-fed controls” value in the data set on C57BL/6J mice fed the WD (second cohort of mice) is reported as 20–30%. Further, in the data set on C57BL/6J mice fed the WD (setting [10]), the “hepatic triglyceride production using poloxamer 407” value is on record as “neither experiment showed a phenotype” and the “triglyceride clearance by oral triglyceride tolerance test (OTTT)” value was “neither experiment showed a phenotype”. Further, the “adverse effects after acute oral bolus” value with mice [8] (C57BL/6J mice, 1,000 mg/kg oral) is listed as “no adverse effects”. The “behavioral signs of distress or ill thrift” value with mice [8] (mice, oral gavage 300 and 1,000 mg/kg, 24-h observation) is listed as “no behavioral signs of distress or ill thrift were observed”. Further, the “effect on body (rectal) temperature” value in the data set on mice [8] (mice, oral gavage 300 and 1,000 mg/kg, 24 h) is “no effect on body temperature was detected”. The “efficacious dose relative to dose level with no observed adverse effect” value with mice [8] (∼38 mg/kg per day in diet versus 1,000 mg/kg acute oral) came to 27 fold. Moreover, in data set [9], the MCAD activity result is given as “no treatment had any effect”. Moreover, the “mitochondrial activity in liver, muscle, heart, white and brown fat” value in the data set with C57BL/6J mouse tissue is “only the liver had significantly increased mitochondrial activity”.

On to `N#CC(C#N)=NNc1ccc(OC(F)(F)F)cc1` [FCCP, carbonylcyanide p-(trifluoromethoxy)phenylhydrazone, reference compound], for which the EC50 with rat L6 myoblasts (read-out: EC50 (OCR), average values, dose response 0.4 to 50 μmol/L) turned out to be 1200 nM. In addition, the plasma membrane depolarization in the data set on L6 myoblasts (10 μmol/L) is listed as 4.9 ± 1.0 mV.

For the origin of these results see PMC10882157 (Diabetes, 2023).
